Results reported in patent publication US20050209162A1, “Methods for monitoring IL-18” (priority 2003, published 2005).

Experiments:
[1] = test system: IL-18; assay: Serum IL-18 levels (sandwich IL-18 ELISA) in healthy male subjects treated with oral Compound A for 14 days; type: in vivo, human; conditions: 900 mg q8 h oral
Protocol: Compound A was evaluated in a double-blind, randomized, placebo-controlled, oral dose, sequential group study in healthy male subjects. 9 subjects received 900 mg Compound A 14 days. 3 subjects received placebo treatment. Doses were administered three times a day at 8-hour intervals on Days 1 to 13 inclusive, and once in the morning of Day 14. All doses were administered in the fasted state.
Blood samples (1×3.5 mL) were taken by venepuncture or cannulation of a forearm vein(s).
Blood samples were collected into 3.5 mL SST Vacutainer® tubes (Becton Dickinson UK Ltd., Oxford) and, after mixing, stored at ambient temperature for at least 30 min prior to centrifugation. The samples were centrifuged, within 1 hour of collection, at 1500 g for 10 minutes at approximately 4° C. For each sample, the separated serum was transferred into two 5 mL suitably labelled polypropylene tubes (at least 0.6 mL in each tube), and stored within 2 hours of collection, at approximately −70° C. the laboratory for IL-18 assay.
IL-18 was assayed using a sandwich IL-18 ELISA technique (Human IL-18 ELISA Kit, Medical and Biological Laboratories, Nagoya, Japan). Standards, Controls and Samples were incubated in wells coated with an anti-human IL-18 monoclonal antibody. […] The developed color was then measured at an OD of 450 using a 630 nm reference filter.

[2] = Absorption and conversion to Compound B upon oral administration; type: in vivo; conditions: converted into Compound B
[3] = biological target: T1, ICE (Homo sapiens, UniProt P29466); assay: ICE inhibition constant (Ki); type: biochemical
T1 sequence (P29466 120-297 limits assumed): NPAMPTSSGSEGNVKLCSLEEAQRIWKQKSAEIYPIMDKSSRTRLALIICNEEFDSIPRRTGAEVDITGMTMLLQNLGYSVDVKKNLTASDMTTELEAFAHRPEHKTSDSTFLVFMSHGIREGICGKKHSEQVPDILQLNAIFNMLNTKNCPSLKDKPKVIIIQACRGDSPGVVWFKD
T1 sequence (P29466 317-404 limits assumed): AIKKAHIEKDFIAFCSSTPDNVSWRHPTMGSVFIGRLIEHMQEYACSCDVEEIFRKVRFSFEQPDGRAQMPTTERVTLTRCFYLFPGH

Row | SMILES | inhibition of serum IL-18 concentrations (in words) ([1]; 14-day treatment period) | inhibition at 900 mg ([1]; Homo sapiens, 336 h, over 14 days of treatment, read-out: inhibition of serum IL-18 median levels) [%] | absorption upon oral administration [2] | Type of ICE inhibition [3]
1 | CCO[C@@H]1OC(=O)C[C@@H]1NC(=O)[C@@H]1CCCN1C(=O)[C@@H](NC(=O)c1ccc(N)c(Cl)c1)C(C)(C)C [Compound A] | gradual but marked inhibition | ~60 | rapidly absorbed | –
2 | CC(C)(C)[C@H](NC(=O)c1ccc(N)c(Cl)c1)C(=O)N1CCC[C@H]1C(=O)N[C@H](C=O)CC(=O)O [Compound B] | – | – | – | selective and reversible ICE inhibitor
